# Experimental data as given in patent publication US10882817B2, “Acetylsalicylic acid derivative crystal, its preparation method and use” (Zhejiang Yuejia Pharmaceuticals Co., Ltd, priority 2015, dated 2021).
# Assay: Stability test of 2-(diethylamino)ethyl 2-acetoxybenzoate hydrochloride crystal
# Assay type: physicochemical
# Settings: for pH value / Other related substances / Related substances 2-(diethylamino)ethyl-salicylate hydrochloride / Related substances Acetylsalicylic acid / Related substances Salicylic acid / Content: stored at 25° C.±2° C.; for pH value: 1.0 g sample in 50 mL water, filtrate; for Other related substances / Related substances 2-(diethylamino)ethyl-salicylate hydrochloride / Related substances Acetylsalicylic acid / Related substances Salicylic acid: HPLC; for Content: HPLC external standard method
# Procedure: The 2-(diethylamino)ethyl 2-acetoxybenzoate hydrochloride crystals obtained in Example 1 is taken and placed under the conditions of 25° C.±2° C., and sampling is carried out at month 0, month 3, month 6, month 9, and month 12, respectively, followed by the detection of the pH value, related substances and their contents. In the process, the pH value is obtained by taking about 1.0 g of a sample, adding 50 mL of water, shaking for 10 minutes, filtration, taking 10 mL of a subsequent filtrate and detection with a pH meter; and the related substances and the contents are both detected by high performance liquid chromatography (an external standard method).
smiles,measurement,setting,value
CCN(CC)CCOC(=O)c1ccccc1OC(C)=O.Cl [2-(diethylamino)ethyl 2-acetoxybenzoate hydrochloride],stability,after having been stored at 25° C.±2° C. for 12 months,very good stability
same,pH value,Month 0,4.82
same,Other related substances,Month 0,Not detected
same,Related substances 2-(diethylamino)ethyl-salicylate hydrochloride,Month 0,0.58%
same,Related substances Acetylsalicylic acid,Month 0,0.0059%
same,Related substances Salicylic acid,Month 0,Not detected
same,Content,Month 0,99.58%
same,pH value,Month 3,4.83
same,Other related substances,Month 3,Not detected
same,Related substances 2-(diethylamino)ethyl-salicylate hydrochloride,Month 3,0.65%
same,Related substances Acetylsalicylic acid,Month 3,0.0063%
same,Related substances Salicylic acid,Month 3,0.00254%
same,Content,Month 3,99.51%
same,pH value,Month 6,4.81
same,Other related substances,Month 6,Not detected
same,Related substances 2-(diethylamino)ethyl-salicylate hydrochloride,Month 6,0.58%
same,Related substances Acetylsalicylic acid,Month 6,0.0070%
same,Related substances Salicylic acid,Month 6,0.00101%
same,Content,Month 6,99.59%
same,pH value,Month 9,4.79
same,Other related substances,Month 9,Not detected
same,Related substances 2-(diethylamino)ethyl-salicylate hydrochloride,Month 9,0.60%
same,Related substances Acetylsalicylic acid,Month 9,0.0048%
same,Related substances Salicylic acid,Month 9,0.00083%
same,Content,Month 9,99.57%
same,pH value,Month 12,4.83
same,Other related substances,Month 12,Not detected
same,Related substances 2-(diethylamino)ethyl-salicylate hydrochloride,Month 12,0.62%
same,Related substances Acetylsalicylic acid,Month 12,0.0053%
same,Related substances Salicylic acid,Month 12,0.00103%
same,Content,Month 12,99.58%
